The subject of assay [1] is Cacopsylla melanoneura. The assay is described as follows: Insecticidal activity against adult of Cacopsylla melanoneura in apple plant assessed as reduction of progeny per female at 16.6 g/ha treated for 14 days measured after 7 days. The assay is classed as functional, organism-based.
Assay [2] concerns Cacopsylla melanoneura. The assay is described as follows: Insecticidal activity against adult of Cacopsylla melanoneura in apple plant assessed as overwintered female mortality at 16.6 g/ha treated for 1 hr measured after 3 days relative to control. Format: functional.
In assay [3] the test system is Cacopsylla melanoneura. The assay is described as follows: Insecticidal activity against adult of Cacopsylla melanoneura in apple plant assessed as reduction of progeny per female at 16.6 g/ha treated for 7 days measured after 7 days. Format: functional, organism-based.
The subject of assay [4] is Cacopsylla melanoneura. Description: Insecticidal activity against adult of Cacopsylla melanoneura in apple plant assessed as reduction of progeny per female at 16.6 g/ha treated for 1 hr measured after 7 days. Format: functional, organism-based.
Assay [5] has as its system Cacopsylla melanoneura. Description: Insecticidal activity against adult of Cacopsylla melanoneura in apple plant assessed as overwintered female mortality at 16.6 g/ha treated for 14 days measured after 3 days relative to control. The assay is classed as functional.
Assay [6] concerns Cacopsylla melanoneura. The assay is described as follows: Insecticidal activity against adult of Cacopsylla melanoneura in apple plant assessed as overwintered female mortality at 16.6 g/ha treated for 7 days measured after 1 day relative to control. Format: functional.
In assay [7] the test system is Cacopsylla melanoneura. The assay is described as follows: Insecticidal activity against adult of Cacopsylla melanoneura in apple plant assessed as overwintered female mortality at 16.6 g/ha treated for 7 days measured after 3 days relative to control. The assay is classed as functional.
For assay [8], the system named is Cacopsylla melanoneura. The assay is described as follows: Insecticidal activity against young stage of Cacopsylla melanoneura in apple plant assessed as mortality at 16.6 g/ha treated for 1 hr measured after 7 days relative to control. The assay is classed as functional.
Assay [9] relates to Cacopsylla melanoneura. The assay is described as follows: Insecticidal activity against young stage of Cacopsylla melanoneura in apple plant assessed as mortality at 16.6 g/ha treated for 14 days measured after 7 days relative to control. Format: functional.
The subject of assay [10] is Cacopsylla melanoneura. The assay is described as follows: Insecticidal activity against young stage of Cacopsylla melanoneura in apple plant assessed as mortality at 16.6 g/ha treated for 7 days measured after 7 days relative to control. Format: functional.
The subject of assay [11] is Cacopsylla melanoneura. The assay is described as follows: Insecticidal activity against adult of Cacopsylla melanoneura in apple plant assessed as overwintered female mortality at 16.6 g/ha treated for 14 days measured after 1 day relative to control. Format: functional.
In assay [12] the test system is Cacopsylla melanoneura. The assay is described as follows: Insecticidal activity against adult of Cacopsylla melanoneura in apple plant assessed as overwintered female mortality at 16.6 g/ha treated for 1 hr measured after 1 day relative to control. The assay is classed as functional.
The test system of assay [13] is Cacopsylla melanoneura. Description: Insecticidal activity against adult of Cacopsylla melanoneura in apple plant assessed as overwintered female mortality at 787.5 g/ha treated for 7 days measured after 1 day relative to control. The assay is classed as functional.
For assay [14], the system named is Cacopsylla melanoneura. Description: Insecticidal activity against adult of Cacopsylla melanoneura in apple plant assessed as reduction of progeny per female at 787.5 g/ha treated for 14 days measured after 7 days. Format: functional, organism-based.
Assay [15] relates to Cacopsylla melanoneura. Description: Insecticidal activity against young stage of Cacopsylla melanoneura in apple plant assessed as mortality at 787.5 g/ha treated for 1 hr measured after 7 days relative to control. Format: functional.
Assay [16] has as its system Cacopsylla melanoneura. Description: Insecticidal activity against adult of Cacopsylla melanoneura in apple plant assessed as overwintered female mortality at 787.5 g/ha treated for 14 days measured after 1 day relative to control. Format: functional.
For assay [17], the system named is Cacopsylla melanoneura. Description: Insecticidal activity against adult of Cacopsylla melanoneura in apple plant assessed as reduction of progeny per female at 787.5 g/ha treated for 1 hr measured after 7 days. Format: functional, organism-based.
For assay [18], the system named is Cacopsylla melanoneura. Description: Insecticidal activity against adult of Cacopsylla melanoneura in apple plant assessed as overwintered female mortality at 787.5 g/ha treated for 14 days measured after 3 days relative to control. The assay is classed as functional.
Assay [19] concerns Cacopsylla melanoneura. The assay is described as follows: Insecticidal activity against adult of Cacopsylla melanoneura in apple plant assessed as reduction of progeny per female at 787.5 g/ha treated for 7 days measured after 7 days. The assay is classed as functional, organism-based.
In assay [20] the test system is Cacopsylla melanoneura. Description: Insecticidal activity against young stage of Cacopsylla melanoneura in apple plant assessed as mortality at 787.5 g/ha treated for 14 days measured after 7 days relative to control. The assay is classed as functional.
The test system of assay [21] is Cacopsylla melanoneura. The assay is described as follows: Insecticidal activity against young stage of Cacopsylla melanoneura in apple plant assessed as mortality at 787.5 g/ha treated for 7 days measured after 7 days relative to control. The assay is classed as functional.
In assay [22] the test system is Cacopsylla melanoneura. The assay is described as follows: Insecticidal activity against adult of Cacopsylla melanoneura in apple plant assessed as overwintered female mortality at 787.5 g/ha treated for 1 hr measured after 1 day relative to control. The assay is classed as functional.
Assay [23] concerns Cacopsylla melanoneura. The assay is described as follows: Insecticidal activity against adult of Cacopsylla melanoneura in apple plant assessed as overwintered female mortality at 787.5 g/ha treated for 1 hr measured after 3 days relative to control. Format: functional.
Assay [24] deals with Cacopsylla melanoneura. Description: Insecticidal activity against adult of Cacopsylla melanoneura in apple plant assessed as overwintered female mortality at 787.5 g/ha treated for 7 days measured after 3 days relative to control. The assay is classed as functional.

Active and inactive are the calls of the source. The rule behind the calls is not given here.

In the case of `CC[C@H](C)[C@H]1O[C@]2(C=C[C@@H]1C)C[C@@H]1C[C@@H](C/C=C(\C)[C@@H](O[C@H]3C[C@H](OC)[C@@H](O[C@H]4C[C@H](OC)[C@@H](O)[C@H](C)O4)[C@H](C)O3)[C@@H](C)/C=C/C=C3\CO[C@@H]4[C@H](O)C(C)=C[C@@H](C(=O)O1)[C@]34O)O2.CO[C@H]1C[C@H](O[C@H]2[C@H](C)O[C@@H](O[C@@H]3/C(C)=C/C[C@@H]4C[C@@H](C[C@]5(C=C[C@H](C)[C@@H](C(C)C)O5)O4)OC(=O)[C@@H]4C=C(C)[C@@H](O)[C@H]5OC/C(=C\C=C\[C@@H]3C)[C@]54O)C[C@@H]2OC)O[C@@H](C)[C@@H]1O` [ABAMECTIN], the result in [1], in assay [3] and in assay [4] was Active. Besides, the Activity in [2] turned out to be 36.7%; in [5], 60%; in assay [6] it was 16.7%; in assay [7], 30%; in [8], 75%; in [9], 71.7%. The figures for the Activity in [10], in assay [11] and in assay [12] were 95%, 43.3% and 33.3%, respectively.
As to `CCOP(=S)(OCC)Oc1nc(Cl)c(Cl)cc1Cl` [CHLORPYRIFOS], the Activity is given as 100% in assay [13]; 98.3% in assay [15]; 93.3% in assay [16]; 93.3% in assay [18]; 100% in assay [20]; 100% in assay [21]. In addition, the Activity in assay [22], in [23] and in [24] was 100% each time. For the same compound, the outcome in assay [14], in assay [17] and in [19] was Active.

The values above are taken from ChEMBL document CHEMBL3044636, “Effectiveness of five insecticides for the control of adults and young stages of Cacopsylla melanoneura (Förster) (Hemiptera: Psyllidae) in a semi-field trial” (2010).
